Values joined by “and” are separate entries in the source; they are usually repeats but may differ in a detail not shown here. Equal values may be shown once.
What was measured:
[1] = test system: intrinsic coagulation pathway (APTT of human plasma); experiment: Anticoagulant activity: APTT with a coagulometer, APTT reagent and standard human plasma; format: biochemical; details: for 2APTT: concentration required to double the APTT of human plasma (EC2.0×): standard human plasma, EC2.0× ± SD (n = 2)
Experimental: The anticoagulant activities of natural SnFG and its oligosaccharides 3, 4, 5, and 6 were assessed using a coagulometer (TECO, MC-2000) using APTT reagents and standard human plasma, according to a previous method. Briefly, 5 μL of a series of concentrations of the samples was added to a standard preheated to 37 °C and another 45 μL of standard human plasma was added for co-incubation at 37 °C for 2 min, followed by the addition of 50 μL of APTT reagent for incubation for another 3 min. Subsequently, 50 μL of CaCl2 (0.02 M) was added and the timer was started.
(§1) Activities of natural HfFG (FG from H. fuscopunctata) and its oligosaccharides oHG-8, oHG-11, oHG-14, and oHG-17 were simultaneously detected for comparison.

[2] = molecular target: T1, intrinsic factor Xase complex (iXase, VIIIa-IXa-PL-Ca2+ complex) (Homo sapiens, UniProt P00740); experiment: Inhibition of iXase: chromogenic substrate assay, BIOPHEN FVIII:C kit and recombinant human factor VIII; format: biochemical; details: IC50 ± SE (n = 2)
T1 construct: intrinsic factor Xase complexes (iXase, VIIIa-IXa-PL-Ca^2+ complex); purchased BIOPHEN FVIII:C (assay kit)
Experimental: Inhibition of iXase was assessed using the chromogenic substrate assay and the FVIII assay kit BIOPHEN FVIII:C: containing R1 (FX), R2 (Activation Reagent), and R3 (SXa-11) and recombinant human factor VIII (FVIII). A total of 30 μL of each sample was added to the 96-well plate, followed by 30 μL of R2 and 30 μL of FVIII solution (2 IU/mL), and the place was placed in the microplate reader. The plates were mixed and incubated at 37 °C for 2 min. Then, 30 μL of R1 was added to mix and incubated at 37 °C for 1 min, and finally, 30 μL of R3 was added. The absorbance value at 405 nm (OD405nm) was recorded via a microplate reader, and continuous reading was performed for 2min at 15 s intervals. The experiments were performed in duplicate. The average value of OD405nm was linearly fitted to time, and the slope (the rate of change in absorbance value ΔOD405nm/min) corresponded to the iXase activity.
as §1

T1 sequence (P00740 47-191 limits assumed): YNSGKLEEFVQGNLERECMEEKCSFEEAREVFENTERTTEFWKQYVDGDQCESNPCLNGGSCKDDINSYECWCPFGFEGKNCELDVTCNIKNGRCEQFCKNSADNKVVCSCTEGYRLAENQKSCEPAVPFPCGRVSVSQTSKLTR
T1 sequence (P00740 227-461 limits assumed): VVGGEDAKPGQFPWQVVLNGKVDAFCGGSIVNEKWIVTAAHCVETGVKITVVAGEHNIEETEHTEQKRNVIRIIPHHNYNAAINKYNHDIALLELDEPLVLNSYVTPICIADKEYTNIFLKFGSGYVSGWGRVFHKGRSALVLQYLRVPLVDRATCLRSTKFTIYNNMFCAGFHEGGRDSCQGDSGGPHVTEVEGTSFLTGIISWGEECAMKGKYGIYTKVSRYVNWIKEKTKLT

Substance | 2APTT: concentration required to double the APTT of human plasma (EC2.0×) [1] | Anti-iXase: concentration required to inhibit 50% Xase activity (IC50) [2] [µg/mL] | fold stronger than oHG-8 in APTT prolongation (EC2.0×) ([1]; EC2.0× 20.94 vs. 32.35 μg/mL)
enoxaparin [LMWH, reference compound] | 7.46 ± 0.02 µg/mL | 0.08444 ± 0.00799 | –
L-Fuc2S4S-α(1,3)-L-Δ^4,5HexA-α(1,3)-D-GalNAc4S6S-β(1,4)-[L-Fuc2S4S-α(1,3)]-D-GlcA-β(1,3)-D-GalNAc4S6S-β(1,4)-[L-Fuc2S4S-α(1,3)]-D-GlcA-ol [compound 3] | 20.94 µg/mL and 20.94 ± 0.27 µg/mL | 0.335 ± 0.02473 | about 1.5 fold

— article PMC11204762, “Purification and Structural Analyses of Sulfated Polysaccharides from Low-Value Sea Cucumber Stichopus naso and Anticoagulant Activities of Its Oligosaccharides” (Marine Drugs, 2024)
